Measurements published in patent US20230146455A1, “TREATMENT OF INFLAMMATORY DISEASES WITH PEPTIDES AND PHARMACEUTICAL COMPOSITIONS” (Yuyu Pharma, Inc., priority 2020, published 2023).
Several values for one entry are separate records, joined by “and”; a condition that tells them apart may be missing. Equal values may be shown once. Where a SMILES comes first, the peptide text is derived from it. [ ]: non-standard residue; d: D form. Hyp = O=C(O)[C@@H]1C[C@@H](O)CN1

Tests used:
Leptin = assay: Example 8 main study Luminex, LPS hPBMCs: Leptin; type: cell-based, human
Method: (§1) Human PBMCs were pretreated with YY-101, YDE-011, YDE-043 or reference compound; Xiidra® at various concentration (ranging from […] to 500 nM) for 2 h before stimulation. An equal volume of 0.5% DMSO was used as a vehicle control. Then, the cells were treated with LPS at 5 ug/ml, which was selected based on the pilot study. The supernatants from treated cells were harvested at 24 h and placed in a 96 well for Luminex cytokine & chemokine profiling using a Luminex 200 multiplex assay (Luminex; R&D system, USA).
(§2) The main study arm with triplicate wells per group in a 24-well plate: • 1. Blank • 2. PBMC: 0.5% DMSO • 3. PBMC+LPS (5 ug/ml) • 4. PBMC+YY-101 500 nM • 5. PBMC+YY-101 50 nM • 6. PBMC+YY-101 5 nM • 7. PBMC+YY-101 0.5 nM • 8. PBMC+LPS (5 ug/ml)+Xiidra® 500 nM • 9. PBMC+LPS (5 ug/ml)+Xiidra® 50 nM • 10. PBMC+LPS (5 ug/ml)+Xiidra® 5 nM • 11. PBMC+LPS (5 ug/ml)+Xiidra® 0.5 nM • 12. PBMC+LPS (5 ug/ml)+Xiidra® 0.05 nM • 13. PBMC+LPS (5 ug/ml)+Xiidra® 0.005 nM • 14. PBMC+LPS (5 ug/ml)+YY-101 500 nM • 15. PBMC+LPS (5 ug/ml)+YY-101 50 nM • 16. PBMC+LPS (5 ug/ml)+YY-101 5 nM • 17. PBMC+LPS (5 ug/ml)+YY-101 0.5 nM • 18. PBMC+LPS (5 ug/ml)+YY-101 0.05 nM • 19. PBMC+LPS (5 ug/ml)+YY-101 0.005 nM • 20. PBMC+LPS (5 ug/ml)+YDE-011 500 nM • 21. PBMC+LPS (5 ug/ml)+YDE-011 50 nM • 22. PBMC+LPS (5 ug/ml)+YDE-011 5 nM • 23. PBMC+LPS (5 ug/ml)+YDE-011 0.5 nM • 24. PBMC+LPS (5 ug/ml)+YDE-011 0.05 nM • 25. PBMC+LPS (5 ug/ml)+YDE-011 0.005 nM • 26. PBMC+LPS (5 ug/ml)+YDE-043 500 nM • 27. PBMC+LPS (5 ug/ml)+YDE-043 50 nM • 28. PBMC+LPS (5 ug/ml)+YDE-043 5 nM • 29. PBMC+LPS (5 ug/ml)+YDE-043 0.5 nM • 30. PBMC+LPS (5 ug/ml)+YDE-043 0.05 nM • 31. PBMC+LPS (5 ug/ml)+YDE-043 0.005 nM
(§3) Multiplex assay was used to measure 30 cytokines and chemokines. The 1:200 diluted cell supernatant and serial dilution of the standard were dispensed into a 96 well plate at 50 ul/well. Then, the pre-mixed cocktail of antibody-coated magnetic beads was dispensed at 50 ul/well and incubated at room temperature for 2 h in a horizontal orbital microplate shaker at 800±500 rpm. The beads were washed using a magnetic device to prevent loss. The biotin-antibody was dispensed in 50 ul of each well and incubated at room temperature for 1 h in a shaker at 800±500 rpm. After washing, streptavidin-PE was added at 50 ul/well and incubated at room temperature for 30 min in a shaker under the same conditions. Finally, after washing, wash buffer (100 ul/well) was added to the plate and incubated in a shaker for 2 min. The Luminex™ 200 setting were set according to the manufacturer's protocol. The data was calculated with a standard five-parameter logistic nonlinear regression analysis of the data (xPonent software 4.2, USA). Results were presented as concentration (ng/ml or pg/ml).

IL-6 = assay: Example 8 main study Luminex, LPS hPBMCs: IL-6; type: cell-based, human; conditions: for LPS-induced IL-6 (in words): at as low as 5 μM, LPS 5 ug/mL 24 hrs
Method: as §1, §2, §3

[1] = PBMC + LPS(5 ug/ml), test article 0.005 nM
[2] = PBMC + LPS(5 ug/ml), test article 0.05 nM
[3] = PBMC + LPS(5 ug/ml), test article 0.5 nM
[4] = PBMC + LPS(5 ug/ml), test article 5 nM
[5] = PBMC + LPS(5 ug/ml), test article 50 nM
[6] = PBMC + LPS(5 ug/ml), test article 500 nM
[7] = PBMC without LPS, test article 0.5 nM
[8] = PBMC without LPS, test article 5 nM
[9] = PBMC without LPS, test article 0.05 uM
[10] = PBMC without LPS, test article 50 nM
[11] = PBMC without LPS, test article 500 nM
[12] = PBMC + LPS(5 ug/ml) + test article 0.005 nM
[13] = PBMC + LPS(5 ug/ml) + test article 0.005 nM, single replicates (1st, 2nd, 3rd)
[14] = PBMC + LPS(5 ug/ml) + test article 0.05 nM
[15] = PBMC + LPS(5 ug/ml) + test article 0.05 nM, single replicates (1st, 2nd, 3rd)
[16] = PBMC + LPS(5 ug/ml) + test article 0.5 nM
[17] = PBMC + LPS(5 ug/ml) + test article 0.5 nM, single replicates (1st, 2nd, 3rd)
[18] = PBMC + LPS(5 ug/ml) + test article 5 nM
[19] = PBMC + LPS(5 ug/ml) + test article 5 nM, single replicates (1st, 2nd, 3rd)
[20] = PBMC + LPS(5 ug/ml) + test article 50 nM
[21] = PBMC + LPS(5 ug/ml) + test article 50 nM, single replicates (1st, 2nd, 3rd)
[22] = PBMC + LPS(5 ug/ml) + test article 500 nM
[23] = PBMC + LPS(5 ug/ml) + test article 500 nM, single replicates (1st, 2nd, 3rd)

## CC(C)C[C@H](NC(=O)CNC(=O)[C@H](CC(=O)O)NC(=O)[C@H](CCC(N)=O)NC(=O)CNC(=O)[C@@H]1C[C@@H](O)CN1)C(=O)N[C@@H](C)C(=O)NCC(=O)N1CCC[C@H]1C(=O)N[C@@H](CCCCN)C(=O)O [YY-101] (H-[Hyp]GQDGLAGPK-OH; N-terminus and C-terminus assumed)
Leptin; [1]
  Leptin Concentration (pg/ml), Mean: 16686.7 pg/mL
  Leptin Concentration (pg/ml), single replicates: 19789.4 pg/ml (2×) and 10481.4 pg/ml
Leptin; [2]
  Leptin Concentration (pg/ml), Mean: 16746.9 pg/mL
  Leptin Concentration (pg/ml), single replicates: 17222.7 pg/ml (2×) and 15795.3 pg/ml
Leptin; [3]
  Leptin Concentration (pg/ml), Mean: 16226.8 pg/mL
  Leptin Concentration (pg/ml), single replicates: 17222.7 pg/ml (2×) and 14234.9 pg/ml
Leptin; [4]
  Leptin Concentration (pg/ml), Mean: 21157.1 pg/mL
  Leptin Concentration (pg/ml), single replicates: 22079.2 pg/mL and 17222.7 pg/mL and 24169.3 pg/mL
Leptin; [5]
  Leptin Concentration (pg/ml), Mean: 15230.8 pg/mL
  Leptin Concentration (pg/ml), single replicates: 17222.7 pg/ml and 14234.9 pg/ml (2×)
Leptin; [6]
  Leptin Concentration (pg/ml), Mean: 18933.8 pg/mL
  Leptin Concentration (pg/ml), single replicates: 19789.4 pg/ml (2×) and 17222.7 pg/ml
Leptin; [7]
  Leptin Concentration (pg/ml), Mean: 15728.8 pg/mL
  Leptin Concentration (pg/ml), single replicates: 14234.9 pg/mL and 17222.7 pg/mL
Leptin; [8]
  Leptin Concentration (pg/ml), Mean: 19092.9 pg/mL
  Leptin Concentration (pg/ml), single replicates: 17222.7 pg/mL and 20963.1 pg/mL
Leptin; [9]
  Leptin Concentration (pg/ml), Mean: 18506.0 pg/mL
  Leptin Concentration (pg/ml), single replicates: 19789.4 pg/mL and 17222.7 pg/mL
Leptin; [10]
  Leptin Concentration (pg/ml), Mean: 24092.8 pg/mL
  Leptin Concentration (pg/ml), single replicates: 26106.3 pg/mL and 22079.2 pg/mL
Leptin; [11]
  Leptin Concentration (pg/ml), Mean: 20376.3 pg/mL
  Leptin Concentration (pg/ml), single replicates: 19789.4 pg/mL and 20963.1 pg/mL
IL-6; [12]
  IL-6 Concentration, Mean: 18061.6 pg/mL
IL-6; [13]
  IL-6 Concentration: 18760.0 pg/mL and 17676.7 pg/mL and 17748.1 pg/mL
IL-6; [14]
  IL-6 Concentration, Mean: 18375.1 pg/mL
IL-6; [15]
  IL-6 Concentration: 17605.3 pg/mL and 19105.4 pg/mL and 18414.7 pg/mL
IL-6; [16]
  IL-6 Concentration, Mean: 18018.0 pg/mL
IL-6; [17]
  IL-6 Concentration: 18069.4 pg/mL and 17248.3 pg/mL and 18736.2 pg/mL
IL-6; [18]
  IL-6 Concentration, Mean: 17232.8 pg/mL
IL-6; [19]
  IL-6 Concentration: 16606.0 pg/mL and 16439.5 pg/mL and 18652.8 pg/mL
IL-6; [20]
  IL-6 Concentration, Mean: 16962.9 pg/mL
IL-6; [21]
  IL-6 Concentration: 16320.6 pg/mL and 16689.2 pg/mL and 17879.0 pg/mL
IL-6; [22]
  IL-6 Concentration, Mean: 17165.1 pg/mL
IL-6; [23]
  IL-6 Concentration: 17129.3 pg/mL and 17748.1 pg/mL and 16617.9 pg/mL
IL-6; PBMC + test article 0.5 nM, no LPS
  IL-6 Concentration, Mean: 16.2 pg/mL
IL-6; PBMC + test article 0.5 nM, no LPS, single replicates (1st, 2nd)
  IL-6 Concentration: 5.0 pg/mL and 27.3 pg/mL
IL-6; PBMC + test article 5 nM, no LPS
  IL-6 Concentration, Mean: 5.0 pg/mL
IL-6; PBMC + test article 5 nM, no LPS, single replicates (1st, 2nd)
  IL-6 Concentration: 5.0 pg/mL
IL-6; PBMC + test article 0.05 uM, no LPS
  IL-6 Concentration, Mean: 140.1 pg/mL
IL-6; PBMC + test article 0.05 uM, no LPS, single replicates (1st, 2nd)
  IL-6 Concentration: 140.1 pg/mL and <2.65 pg/mL
IL-6; PBMC + test article 50 nM, no LPS
  IL-6 Concentration, Mean: 5.0 pg/mL
IL-6; PBMC + test article 50 nM, no LPS, single replicates (1st, 2nd)
  IL-6 Concentration: 5.0 pg/mL and <2.65 pg/mL
IL-6; PBMC + test article 500 nM, no LPS, single replicates (1st, 2nd)
  IL-6 Concentration: <2.65 pg/mL
IL-6
  LPS-induced IL-6 (in words): significantly reduced

## CC(C)C[C@H](NC(=O)CNC(=O)[C@H](CC(C)C)NC(=O)[C@H](CCC(N)=O)NC(=O)CNC(=O)[C@@H]1C[C@@H](O)CN1)C(=O)N[C@@H](C)C(=O)NCC(=O)N1CCC[C@H]1C(=O)N[C@@H](CCCCN)C(=O)O [YDE-011] (H-[Hyp]GQLGLAGPK-OH)
Leptin; [1]
  Leptin Concentration (pg/ml), Mean: 14975.6 pg/mL
  Leptin Concentration (pg/ml), single replicates: 17222.7 pg/ml (2×) and 10481.4 pg/ml
Leptin; [2]
  Leptin Concentration (pg/ml), Mean: 14835.2 pg/mL
  Leptin Concentration (pg/ml), single replicates: 19789.4 pg/mL and 10481.4 pg/mL and 14234.9 pg/mL
Leptin; [3]
  Leptin Concentration (pg/ml), Mean: 9683.0 pg/mL
  Leptin Concentration (pg/ml), single replicates: 10481.4 pg/mL and 4332.6 pg/mL and 14234.9 pg/mL
Leptin; [4]
  Leptin Concentration (pg/ml), Mean: 10777.7 pg/mL
  Leptin Concentration (pg/ml), single replicates: <98.95 pg/mL and 4332.6 pg/mL and 17222.7 pg/mL
Leptin; [5]
  Leptin Concentration (pg/ml), Mean: 12358.1 pg/mL
  Leptin Concentration (pg/ml), single replicates: 10481.4 pg/mL and 14234.9 pg/mL and <98.95 pg/mL
Leptin; [6]
  Leptin Concentration (pg/ml), Mean: 13896.3 pg/mL
  Leptin Concentration (pg/ml), single replicates: 19789.4 pg/mL and <98.95 pg/mL and 8003.2 pg/mL
IL-6; [12]
  IL-6 Concentration, Mean: 16114.6 pg/mL
IL-6; [13]
  IL-6 Concentration: 16843.8 pg/mL and 15250.9 pg/mL and 16249.2 pg/mL
IL-6; [14]
  IL-6 Concentration, Mean: 18589.3 pg/mL
IL-6; [15]
  IL-6 Concentration: 18843.4 pg/mL and 18343.3 pg/mL and 18581.4 pg/mL
IL-6; [16]
  IL-6 Concentration, Mean: 15456.8 pg/mL
IL-6; [17]
  IL-6 Concentration: 15322.2 pg/mL and 15654.9 pg/mL and 15393.5 pg/mL
IL-6; [18]
  IL-6 Concentration, Mean: 13541.9 pg/mL
IL-6; [19]
  IL-6 Concentration: 12094.3 pg/mL and 12947.9 pg/mL and 15583.6 pg/mL
IL-6; [20]
  IL-6 Concentration, Mean: 14621.7 pg/mL
IL-6; [21]
  IL-6 Concentration: 17248.3 pg/mL and 9892.0 pg/mL and 16724.9 pg/mL
IL-6; [22]
  IL-6 Concentration, Mean: 14568.3 pg/mL
IL-6; [23]
  IL-6 Concentration: 19367.5 pg/mL and 9383.5 pg/mL and 14953.9 pg/mL
IL-6
  LPS-induced IL-6 (in words): significantly reduced
